Consider four compounds from patent US20200317642A1, “AMINE-SUBSTITUTED HETEROCYCLIC COMPOUNDS AS EHMT2 INHIBITORS AND DERIVATIVES THEREOF” (Epizyme, Inc., priority 2017, published 2020).

The target of assay [1] is T1, EHMT1 (Homo sapiens, UniProt Q9H9B1).
T1 sequence (Q9H9B1 1-1298): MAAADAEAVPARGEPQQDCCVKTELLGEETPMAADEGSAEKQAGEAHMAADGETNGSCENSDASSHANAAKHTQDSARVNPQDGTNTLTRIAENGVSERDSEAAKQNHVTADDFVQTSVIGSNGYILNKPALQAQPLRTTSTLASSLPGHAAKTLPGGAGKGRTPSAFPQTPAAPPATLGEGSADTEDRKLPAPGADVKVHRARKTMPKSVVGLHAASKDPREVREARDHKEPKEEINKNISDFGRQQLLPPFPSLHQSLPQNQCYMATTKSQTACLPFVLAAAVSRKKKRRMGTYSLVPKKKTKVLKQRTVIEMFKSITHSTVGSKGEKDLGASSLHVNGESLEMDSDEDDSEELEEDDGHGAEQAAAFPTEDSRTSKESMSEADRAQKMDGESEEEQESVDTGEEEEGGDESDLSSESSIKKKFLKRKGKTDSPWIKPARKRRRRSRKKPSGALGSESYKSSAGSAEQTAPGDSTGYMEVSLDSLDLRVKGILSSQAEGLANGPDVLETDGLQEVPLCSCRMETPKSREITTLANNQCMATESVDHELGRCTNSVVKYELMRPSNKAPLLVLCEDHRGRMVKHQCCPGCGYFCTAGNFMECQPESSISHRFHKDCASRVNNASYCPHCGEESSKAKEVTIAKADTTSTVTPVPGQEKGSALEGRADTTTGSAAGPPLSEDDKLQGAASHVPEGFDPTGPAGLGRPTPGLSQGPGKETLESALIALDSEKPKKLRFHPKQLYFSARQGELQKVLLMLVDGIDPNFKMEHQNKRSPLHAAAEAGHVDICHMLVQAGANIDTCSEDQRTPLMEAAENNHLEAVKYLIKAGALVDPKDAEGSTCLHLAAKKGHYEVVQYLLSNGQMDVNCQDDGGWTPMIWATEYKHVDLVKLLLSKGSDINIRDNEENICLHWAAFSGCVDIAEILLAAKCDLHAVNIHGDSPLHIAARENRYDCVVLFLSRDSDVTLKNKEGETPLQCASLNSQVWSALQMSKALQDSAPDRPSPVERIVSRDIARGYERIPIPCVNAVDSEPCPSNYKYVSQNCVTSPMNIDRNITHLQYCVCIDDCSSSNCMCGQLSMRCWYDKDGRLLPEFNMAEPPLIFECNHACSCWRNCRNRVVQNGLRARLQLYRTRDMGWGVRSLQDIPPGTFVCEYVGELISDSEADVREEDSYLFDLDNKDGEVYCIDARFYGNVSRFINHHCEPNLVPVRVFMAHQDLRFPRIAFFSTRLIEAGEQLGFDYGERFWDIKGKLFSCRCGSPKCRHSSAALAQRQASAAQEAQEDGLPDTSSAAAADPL
Description: EHMT1 PEP enzyme assay. It is filed as biochemical. As to conditions: Table 3A; read-out: EHMT1 (IC50 μM).

Assay [2] deals with H3K9me2 in MDA-MB-231 cells. Description: MDA-MB-231 H3K9me2 in-cell western assay (EHMT2 ICW). As to conditions: Homo sapiens, Table 3A, read-out: ICW (IC50 μM). The assay is classed as cell-based. Put shortly:
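MDA-MB-231 cells (3,000/well) were exposed to compound for 48 h at 37 °C, 30 min at room temperature, then a further 48 h. Fixed cells were immunostained for H3K9me2 with DRAQ5 co-stain and read by infrared imaging at 700/800 nm. Inhibition was set against DMSO and UNC0638 wells; IC50 from four-parameter fit (top 100%, bottom 0%), triplicates.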

`CNC1=Nc2cc(-n3cc(CN4CCC4)cn3)c(Cl)cc2C12CCC2` [Compound A17, 6′-(4-(azetidin-1-ylmethyl)-1H-pyrazol-1-yl)-5′-chloro-N-methylspiro[cyclobutane-1,3′-indol]-2′-amine]: the figures for the IC50 in assay [1] and in assay [2] were 0.01 to 0.1 µM and 0.1 to 1 µM, respectively.
For `CNc1cc(C)nc(Nc2ccc(OC)c(-n3cc4c(n3)CCNC4)c2F)n1` [Compound A19, N2-(2-fluoro-4-methoxy-3-(4,5,6,7-tetrahydro-2H-pyrazolo[4,3-c]pyridin-2-yl)phenyl)-N4,6-dimethylpyrimidine-2,4-diamine], the IC50 in assay [1] and in assay [2] was 0.1 to 1 µM in each case.
As to `CNCc1cn(-c2c(OC)cc3c(c2F)N=C(NC)C32CCC2)nn1` [Compound A21], the IC50 in assay [1] lay in the range of 0.01 to 0.1 µM; in assay [2], 0.1 to 1 µM.
The corresponding values for `CNCc1cn(-c2c(OC)cc3c(c2F)N=C(N)C32CCC2)nn1` [Compound A22] are 0.01 to 0.1 µM and 0.1 to 1 µM.
